Where a name gives a salt, the structure may show the parent alone. Read-outs that look alike come from different tables or passages of the source.
Tests used:
[1] = tested on: Influenza A2 /MTL/68; assay: In vitro anti-myxovirus assay, inhibition of hemadsorption, Influenza A2/MTL/68 in G-2 cells; assay type: cell-based, Influenza A2 /Montreal/68; details: for inhibition at 5 µg/mL: 5 ug/ml; for inhibition at 10 µg/mL: 10 ug/ml; for inhibition at 25 µg/mL: 25 ug/ml; for inhibition at 33 µg/mL: 33 ug/ml; for inhibition at 50 µg/mL: 50 ug/ml
[2] = in vitro; details: human, g-2 cells; for MNTC: Cytotoxicity CTD0, maximal non-toxic concentration; for CC50: Cytotoxicity CTD50
[3] = tested on: mice; assay: Subacute toxicity in mice; details: once a day, seventeenth day of treatment
[4] = Subacute toxicity in mice; details: mouse, in vivo
[5] = tested on: mice; assay: Acute toxicity in mice; details: after 24 hours
[6] = Acute toxicity in mice; details: mouse, in vivo
[7] = tested on: influenza virus A2 /Aichi/2/68; assay type: in vivo, mice (Charles River, random bred white, female); details: for Mean Survival Time / Survival % / Survival N (surviving animals / total infected) / Mean Survival Time Increase: 16 days; for Mean Survival Time Increase: vs virus only; for antiviral effect against influenza virus infection: administered intraperitoneally
[8] = tested on: G-2 cells; details: maximal non-toxic concentration; G-2 cells; hydrochloride
[9] = tested on: Influenza A/Swine/1976/31; assay: microbe, parasite or virus in culture; assay type: cell-based; details: in Sus scrofa
[10] = tested on: Influenza A2 /Aichi/2/68; assay: In vitro anti-myxovirus assay, inhibition of hemadsorption, Influenza A2/Aichi/2/68 in G-2 cells; assay type: cell-based; details: for inhibition at 50 µg/mL: 50 ug/ml; for inhibition at 60 µg/mL: 60 ug/ml; for inhibition at 70 µg/mL: 70 ug/ml; for inhibition at 80 µg/mL: 80 ug/ml; for inhibition at 90 µg/mL: 90 ug/ml; for inhibition at 100 µg/mL: 100 ug/ml
[11] = Exp. 1, virus dose 4.1 LD50, 25 mg/kg/day IP
[12] = Exp. 1, virus dose 4.1 LD50, 75 mg/kg/day IP
[13] = Exp. 2, virus dose 2.0 LD50, 75 mg/kg/day IP
[14] = Exp. 3, virus dose 2.6 LD50, 75 mg/kg/day IP
[15] = Exp. 4, virus dose 3.0 LD50, 75 mg/kg/day IP

CN(C)C[C@@H]1C[C@H]2C[C@@H]1c1ccccc12 (relative stereo) [Compound A, endo-2-dimethylaminomethyl-1,2,3,4-tetrahydro-1,4-methanonaphthalene hydrochloride]
inhibition at 5 µg/mL ([1]; 32 TCID50): 0% | inhibition at 10 µg/mL ([1]; 32 TCID50): 23% | inhibition at 25 µg/mL ([1]; 32 TCID50): 76% | inhibition at 33 µg/mL ([1]; 32 TCID50): 78% | inhibition at 50 µg/mL ([1]; 32 TCID50): 97% | inhibition at 5 µg/mL ([1]; 316 TCID50): 0% | inhibition at 10 µg/mL ([1]; 316 TCID50): 0% | inhibition at 25 µg/mL ([1]; 316 TCID50): 27% | inhibition at 33 µg/mL ([1]; 316 TCID50): 52% | inhibition at 50 µg/mL ([1]; 316 TCID50): 53% | MNTC [2]: 75 µg/mL | CC50 [2]: 100 µg/mL | Subacute LD0 (non-lethal dose) ([3]; IP): 75 mg/kg/day | Subacute LD0 (non-lethal dose) ([3]; PO): > 750 mg/kg/day | LD50 at 408 h ([4]; ip): 125 mg/kg | NOAEL at 408 h ([4]; ip): 25 mg/kg/day | LD50 at 408 h ([4]; po): > 750 mg/kg | NOAEL at 408 h ([4]; po): 300 mg/kg/day | Acute LD0 (non-lethal dose) ([5]; IP): 75 mg/kg/day | Acute LD0 (non-lethal dose) ([5]; PO): > 750 mg/kg/day | LD50 at 24 h ([6]; ip): 160 mg/kg | NOAEL at 24 h ([6]; ip): 25 mg/kg/day | LD50 at 24 h ([6]; po): > 750 mg/kg | NOAEL at 24 h ([6]; po): 200 mg/kg/day | Mean Survival Time [7, 11]: 12.7 days | Survival % [7, 11]: 30% | Survival N (surviving animals / total infected) [7, 11]: 6/20 | Mean Survival Time Increase [7, 11]: +0.5 Days | antiviral effect against influenza virus infection [7]: significant antiviral effect | Cytotoxicity CTD0 [8]: 50 µg/mL | inhibition at 5 µg/mL ([9]; 56 TCID50, 5 ug/ml): 0% | inhibition at 10 µg/mL ([9]; 56 TCID50, 10 ug/ml): 37% | inhibition at 25 µg/mL ([9]; 56 TCID50, 25 ug/ml): 85% | inhibition at 33 µg/mL ([9]; 56 TCID50, 33 ug/ml): 82% | inhibition at 50 µg/mL ([9]; 56 TCID50, 50 ug/ml): 97% | inhibition at 75 µg/mL ([9]; 56 TCID50, 75 ug/ml): 100% | inhibition at 5 µg/mL ([9]; 562 TCID50, 5 ug/ml): 0% | inhibition at 10 µg/mL ([9]; 562 TCID50, 10 ug/ml): 0% | inhibition at 25 µg/mL ([9]; 562 TCID50, 25 ug/ml): 0% | inhibition at 33 µg/mL ([9]; 562 TCID50, 33 ug/ml): 37% | inhibition at 50 µg/mL ([9]; 562 TCID50, 50 ug/ml): 72% | inhibition at 75 µg/mL ([9]; 562 TCID50, 75 ug/ml): 73%

NC12CC3CC(CC(C3)C1)C2 [AMANTADINE HYDROCHLORIDE, reference compound]
inhibition at 50 µg/mL ([1]; 316 TCID50): 0% | inhibition at 60 µg/mL ([1]; 316 TCID50, 60 ug/ml): 0% | inhibition at 70 µg/mL ([1]; 316 TCID50, 70 ug/ml): 16% | inhibition at 80 µg/mL ([1]; 316 TCID50, 80 ug/ml): 42% | inhibition at 90 µg/mL ([1]; 316 TCID50, 90 ug/ml): 46% | inhibition at 100 µg/mL ([1]; 316 TCID50, 100 ug/ml): 54% | MNTC [2]: 100 µg/mL | CC50 [2]: > 100 µg/mL | Mean Survival Time [7, 12]: 14.1 days | Survival % [7, 12]: 55% | Survival N (surviving animals / total infected) [7, 12]: 11/20 | Mean Survival Time Increase [7, 12]: +1.9 Days | Mean Survival Time [7, 13]: 15.3 days | Survival % [7, 13]: 80% | Survival N (surviving animals / total infected) [7, 13]: 16/20 | Mean Survival Time Increase [7, 13]: +2.9 Days | Mean Survival Time [7, 14]: 15.1 days | Survival % [7, 14]: 80% | Survival N (surviving animals / total infected) [7, 14]: 16/20 | Mean Survival Time Increase [7, 14]: +4.0 Days | Mean Survival Time [7, 15]: 15.0 days | Survival % [7, 15]: 79% | Survival N (surviving animals / total infected) [7, 15]: 15/19 | Mean Survival Time Increase [7, 15]: +3.7 Days | antiviral effect against influenza virus infection [7]: significant antiviral effect | inhibition at 50 µg/mL ([10]; 52 TCID50): 0% | inhibition at 60 µg/mL ([10]; 52 TCID50): 53% | inhibition at 70 µg/mL ([10]; 52 TCID50): 83% | inhibition at 80 µg/mL ([10]; 52 TCID50): 70% | inhibition at 90 µg/mL ([10]; 52 TCID50): 97% | inhibition at 100 µg/mL ([10]; 52 TCID50): 87% | inhibition at 50 µg/mL ([10]; 100 TCID50): 0% | inhibition at 60 µg/mL ([10]; 100 TCID50): 0% | inhibition at 70 µg/mL ([10]; 100 TCID50): 33% | inhibition at 80 µg/mL ([10]; 100 TCID50): 27% | inhibition at 90 µg/mL ([10]; 100 TCID50): 67% | inhibition at 100 µg/mL ([10]; 100 TCID50): 43% | inhibition at 30 µg/mL ([9]; 178 TCID50, 30 ug/ml): 0% | inhibition at 40 µg/mL ([9]; 178 TCID50, 40 ug/ml): 17% | inhibition at 50 µg/mL ([9]; 178 TCID50, 50 ug/ml): 80% | inhibition at 60 µg/mL ([9]; 178 TCID50, 60 ug/ml): 90% | inhibition at 70 µg/mL ([9]; 178 TCID50, 70 ug/ml): 93% | inhibition at 80 µg/mL ([9]; 178 TCID50, 80 ug/ml): 100% | inhibition at 90 µg/mL ([9]; 178 TCID50, 90 ug/ml): 100% | inhibition at 100 µg/mL ([9]; 178 TCID50, 100 ug/ml): 100% | inhibition at 30 µg/mL ([9]; 316 TCID50, 30 ug/ml): 0% | inhibition at 40 µg/mL ([9]; 316 TCID50, 40 ug/ml): 10% | inhibition at 50 µg/mL ([9]; 316 TCID50, 50 ug/ml): 67% | inhibition at 70 µg/mL ([9]; 316 TCID50, 70 ug/ml): 97% | inhibition at 80 µg/mL ([9]; 316 TCID50, 80 ug/ml): 100% | inhibition at 90 µg/mL ([9]; 316 TCID50, 90 ug/ml): 100% | inhibition at 100 µg/mL ([9]; 316 TCID50, 100 ug/ml): 100%
